From ChEMBL document CHEMBL1201862, “PubChem BioAssay data set” (2004)
The source made the active and inactive calls.

How the values were obtained:
[1] = biological target: T1, Polyadenylate-binding protein 1 (Homo sapiens, UniProt P11940); assay: MLLE domain peptide-binding blockers, IC50 – biochemical, fluorescence polarization, FITC-PAM2 peptide, dose response (AID 602259); assay type: functional; conditions: read-out: IC50_Mean
[2] = biological target: T1, Polyadenylate-binding protein 1; assay: MLLE binding blockers, Cy5 peptide tracer – biochemical, fluorescence polarization, Cy5-PAM2 peptide, secondary, miRNA deadenylation inhibitor project, dose response (AID 602260); assay type: functional; conditions: read-out: IC50_Mean
Streptokinase A = biological target: T2, Streptokinase A (Streptococcus pyogenes serotype M1, UniProt P10520); assay: viability-normalized secreted streptokinase activity reduction – plasminogen activation absorbance, OD405, dose response (AID 1914); assay type: functional, Streptococcus pyogenes M1 GAS;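 note: secreted streptokinase activity via plasminogen activation per viability signal from cell pellet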
T2 sequence (P10520 whole entry): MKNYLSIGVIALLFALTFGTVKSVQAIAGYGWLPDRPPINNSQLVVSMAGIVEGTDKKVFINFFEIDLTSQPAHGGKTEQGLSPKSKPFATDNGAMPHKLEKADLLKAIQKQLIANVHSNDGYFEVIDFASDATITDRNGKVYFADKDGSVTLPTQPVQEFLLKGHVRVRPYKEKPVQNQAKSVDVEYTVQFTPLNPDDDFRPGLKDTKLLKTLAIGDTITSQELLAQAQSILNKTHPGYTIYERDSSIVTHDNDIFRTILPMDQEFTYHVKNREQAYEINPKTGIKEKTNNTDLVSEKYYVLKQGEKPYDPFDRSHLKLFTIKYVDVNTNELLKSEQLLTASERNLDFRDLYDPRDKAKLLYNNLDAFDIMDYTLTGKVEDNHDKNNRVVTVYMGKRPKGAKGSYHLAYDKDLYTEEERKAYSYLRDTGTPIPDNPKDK

Protein skinhead-1 = biological target: T3, Protein skinhead-1 (Caenorhabditis elegans, UniProt P34707); assay type: functional
T3 sequence (P34707 whole entry): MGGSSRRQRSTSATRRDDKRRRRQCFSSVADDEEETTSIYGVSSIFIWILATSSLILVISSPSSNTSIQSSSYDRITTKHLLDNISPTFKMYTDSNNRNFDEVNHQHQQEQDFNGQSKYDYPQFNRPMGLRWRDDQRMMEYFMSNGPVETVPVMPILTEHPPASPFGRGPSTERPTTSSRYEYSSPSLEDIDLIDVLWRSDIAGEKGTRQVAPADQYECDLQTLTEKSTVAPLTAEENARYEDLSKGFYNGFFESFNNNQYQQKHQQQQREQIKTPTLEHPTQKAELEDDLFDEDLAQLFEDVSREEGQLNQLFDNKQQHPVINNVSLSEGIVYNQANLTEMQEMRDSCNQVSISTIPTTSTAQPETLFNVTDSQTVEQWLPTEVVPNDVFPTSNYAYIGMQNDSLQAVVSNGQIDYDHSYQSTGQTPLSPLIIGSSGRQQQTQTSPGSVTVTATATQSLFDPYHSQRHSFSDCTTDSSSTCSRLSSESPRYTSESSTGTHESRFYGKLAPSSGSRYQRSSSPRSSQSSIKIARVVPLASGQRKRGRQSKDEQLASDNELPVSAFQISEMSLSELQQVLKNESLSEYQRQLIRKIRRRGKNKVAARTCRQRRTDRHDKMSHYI

Nonstructural protein 1 = Nonstructural protein 1 (Influenza A virus, UniProt Q194T2); assay type: functional, Influenza A virus (A/California/07/2009(H1N1))
[3] = viability of PTEN-deleted HCT116 cells – cell-based, HCT116 PTEN knockout, dose response (AID 1047); assay type: functional;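 note: HCT116 colon tumor cells with PTEN knocked out; cells exposed to compound for 60 hours before readout; potency for loss of cell viability measured by luminescence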
[4] = viability of HCT116 lacking mutant beta-catenin – cell-based, human colon tumor, dose response (AID 1045); assay type: functional;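 note: HCT116 colon tumor cells with beta catenin knocked out; cells exposed to compound for 60 hours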
Streptococcus = assay: GAS UMAA2166 growth inhibition – luminescence, BacTiterGlo, counter-screen for streptokinase expression inhibitor project, dose response (AID 1915); assay type: functional, organism-based;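 note: potency for reduction of bacterial viability or growth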
Paired box protein Pax-8 = Paired box protein Pax-8 (Homo sapiens, UniProt Q06710); assay: PAX8 transcriptional activity inhibition in RMG-I – RMG-I cells, luciferase, cherry-pick, dose response (AID 687027); assay type: functional, cell-based;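 note: luciferase reporter driven by Pax8 target thyroperoxidase promoter measured by SteadyGlo luminescence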
[5] = tested on: Streptococcus sp. 'group A'; assay: Streptococcus pyogenes SK(-)GAS viability under kanamycin – luminescence, BacTiterGlo, confirmation, counter-screen for streptokinase expression inhibitor project, dose response (AID 1900); assay type: functional, organism-based
[6] = biological target: FAD-linked sulfhydryl oxidase ALR (Homo sapiens, UniProt P55789); assay: ALR-catalysed DTT oxidation blockers – biochemical, H2O2 detection, luminescence, cherry-pick, dose response (AID 493248)
[7] = biological target: T4, Calpain-2 catalytic subunit (Sus scrofa, UniProt P43367); assay: m-calpain protease blockers, concentration series – biochemical, fluorogenic peptide substrate, dose response (AID 1420); assay type: functional
T4 sequence (P43367 whole entry): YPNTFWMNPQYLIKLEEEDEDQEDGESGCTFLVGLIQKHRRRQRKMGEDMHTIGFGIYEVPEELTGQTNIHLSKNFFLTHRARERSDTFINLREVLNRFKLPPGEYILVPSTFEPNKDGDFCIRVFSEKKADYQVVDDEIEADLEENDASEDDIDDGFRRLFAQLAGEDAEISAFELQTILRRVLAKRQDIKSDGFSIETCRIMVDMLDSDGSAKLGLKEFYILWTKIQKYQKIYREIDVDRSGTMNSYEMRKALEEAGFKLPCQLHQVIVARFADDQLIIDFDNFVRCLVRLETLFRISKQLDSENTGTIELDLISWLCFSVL

[8] = biological target: T5, Carboxy-terminal domain RNA polymerase II polypeptide A small phosphatase 1 (Homo sapiens, UniProt Q9GZU7); assay: CTDSP1 inhibitors, concentration-response, biochemical, absorbance readout, ultra-high-throughput screen actives (AID 540297); assay type: functional
T5 sequence (Q9GZU7 whole entry): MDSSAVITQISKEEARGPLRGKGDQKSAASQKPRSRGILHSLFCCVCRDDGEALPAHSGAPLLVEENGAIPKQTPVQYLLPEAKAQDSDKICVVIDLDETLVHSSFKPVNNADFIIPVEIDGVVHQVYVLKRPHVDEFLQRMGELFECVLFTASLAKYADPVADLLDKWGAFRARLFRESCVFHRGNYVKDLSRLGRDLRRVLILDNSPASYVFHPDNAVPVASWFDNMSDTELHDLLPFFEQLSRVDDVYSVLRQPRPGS

[9] = NIH3T3 cell viability loss – ATP luminescence, mouse fibroblasts, counter-screen, dose response (AID 2010); assay type: functional, cell-based;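 note: cells exposed to compound for about 90 hours before reading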
[10] = Trypanosoma cruzi growth suppression in host cells – NIH3T3 host cells, beta-gal luminescence, confirmation (AID 2044); assay type: functional, cell-based;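 note: intracellular parasites grown in NIH/3T3 mouse fibroblasts as host cells; luminescent beta-galactosidase reporter signal from transgenic T. cruzi replicating inside host cells; inhibitors lower the luminescence signal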
H4 = assay: Luminescence Cell-Based Dose Response HTS to Identify Activators of 5'UTR Stem-Loop Driven Prion Protein mRNA Translation in H4 Neuroglioblastoma Cells. [Related pubchem assays: 1829 (Project Summary), 1814 (Primary HTS)]; assay type: functional; conditions: Homo sapiens
[11] = Luminescence Cell-Based Dose Confirmation HTS to Identify Activators of 5'UTR Stem-Loop Driven Alpha-Synuclein mRNA Translation in H4 Neuroglioblastoma Cells. [Related pubchem assays: 1829 (Project Summary), 1814 (Primary HTS)]; assay type: functional
[12] = Luminescence Cell-Based Dose Response HTS to Identify Activators of Luciferase Translation or Activity in H4 […] Cells. [Related pubchem assays: 1829 (Project Summary), 1814 (Primary HTS)]; assay type: functional
[13] = viability of uninfected HEp-2 cells – cell-based, HTS, cytotoxicity control for RSV inhibitor project, dose response (AID 2410); assay type: functional; conditions: human respiratory syncytial virus

T1 sequence (P11940 whole entry, the tested form may be a part): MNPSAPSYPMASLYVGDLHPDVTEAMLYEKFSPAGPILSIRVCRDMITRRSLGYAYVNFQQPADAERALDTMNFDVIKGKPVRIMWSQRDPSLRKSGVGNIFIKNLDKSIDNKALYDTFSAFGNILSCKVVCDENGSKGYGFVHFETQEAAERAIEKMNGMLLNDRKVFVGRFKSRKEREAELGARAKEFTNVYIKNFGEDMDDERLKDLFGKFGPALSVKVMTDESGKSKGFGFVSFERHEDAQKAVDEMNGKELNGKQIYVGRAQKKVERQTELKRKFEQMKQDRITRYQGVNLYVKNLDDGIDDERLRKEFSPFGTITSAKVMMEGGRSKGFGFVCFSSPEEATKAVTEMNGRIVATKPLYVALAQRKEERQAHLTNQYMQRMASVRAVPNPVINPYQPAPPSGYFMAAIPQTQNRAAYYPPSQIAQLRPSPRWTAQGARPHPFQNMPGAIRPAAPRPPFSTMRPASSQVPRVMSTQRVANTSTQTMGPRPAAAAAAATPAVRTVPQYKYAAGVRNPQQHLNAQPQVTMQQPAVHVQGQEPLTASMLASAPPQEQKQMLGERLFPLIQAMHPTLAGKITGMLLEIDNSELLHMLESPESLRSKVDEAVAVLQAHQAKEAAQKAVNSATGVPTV
FAD-linked sulfhydryl oxidase ALR, sequence (P55789 whole entry): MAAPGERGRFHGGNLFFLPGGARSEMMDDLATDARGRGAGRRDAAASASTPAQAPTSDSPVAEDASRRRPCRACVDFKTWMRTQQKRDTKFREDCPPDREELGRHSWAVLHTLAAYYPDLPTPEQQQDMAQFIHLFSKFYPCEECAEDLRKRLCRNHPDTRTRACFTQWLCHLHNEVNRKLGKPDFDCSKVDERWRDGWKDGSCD
Paired box protein Pax-8, sequence (Q06710 whole entry): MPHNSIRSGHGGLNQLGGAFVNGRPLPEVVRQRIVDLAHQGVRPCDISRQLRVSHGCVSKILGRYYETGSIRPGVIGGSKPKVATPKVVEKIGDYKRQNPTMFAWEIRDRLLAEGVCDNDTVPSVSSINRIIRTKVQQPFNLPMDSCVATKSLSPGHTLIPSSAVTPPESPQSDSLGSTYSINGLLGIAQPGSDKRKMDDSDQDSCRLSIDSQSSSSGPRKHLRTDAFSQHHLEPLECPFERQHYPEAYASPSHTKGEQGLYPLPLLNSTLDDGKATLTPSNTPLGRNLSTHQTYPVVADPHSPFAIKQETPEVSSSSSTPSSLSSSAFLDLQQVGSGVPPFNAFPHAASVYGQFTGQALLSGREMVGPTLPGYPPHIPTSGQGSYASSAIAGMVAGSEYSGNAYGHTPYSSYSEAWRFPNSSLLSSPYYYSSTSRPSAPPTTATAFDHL
Nonstructural protein 1, sequence (Q194T2 whole entry): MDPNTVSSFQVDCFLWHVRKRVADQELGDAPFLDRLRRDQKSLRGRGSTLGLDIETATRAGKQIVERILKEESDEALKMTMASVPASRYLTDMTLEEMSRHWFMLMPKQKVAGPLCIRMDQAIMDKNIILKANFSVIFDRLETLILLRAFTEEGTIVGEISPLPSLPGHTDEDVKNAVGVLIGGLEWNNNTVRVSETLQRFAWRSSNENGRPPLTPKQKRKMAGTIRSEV

Compound: CCOc1ccc(-n2cc(-c3ccccc3)c3c(=S)[nH]cnc32)cc1
- IC50 [1]: > 66 µM (inactive)
- IC50 [2]: > 66 µM (inactive)
- EC50 (Streptokinase A): > 150 µM (not active)

Compound: Cc1cc(NC(=O)CSc2nnc(-c3ccncc3)n2-c2ccc(F)cc2)no1
- IC50 (Protein skinhead-1): > 100 µM (inactive)

Compound: COc1ccc(S(=O)(=O)NCc2ccc3c(c2)cc(C)n3C)cc1
- IC50 [1]: > 66 µM (inactive)
- IC50 [2]: > 66 µM (inactive)
- IC50 (Nonstructural protein 1): 66.3 µM (active)

Compound: O=C(N/N=C/c1c[nH]c2ccccc12)c1[nH]c2ccc(Br)cc2c1-c1ccccc1
- EC50 [3]: 0.412 µM (active)
- EC50 [4]: 0.378 µM (active)
- EC50 (Streptokinase A): > 150 µM (not active)
- EC50 (Streptococcus): 2.22 µM (active)
- AC50 (Paired box protein Pax-8): 3.5 µM (active)
- EC50 [5]: 1.29 µM (active)

Compound: CCOc1ccccc1NC(=O)Cn1c(=O)oc2cc(Cl)ccc21
- IC50 (Protein skinhead-1): > 100 µM (inactive)

Compound: CCOC(=O)c1ccccc1N1C(=O)CSC1=S
- IC50 [1]: > 66 µM (inactive)
- IC50 [2]: > 66 µM (inactive)

Compound: O=C(NC1CCCCCC1)C(=S)NCCc1ccccc1
- IC50 [1]: > 66 µM (inactive)
- IC50 [2]: > 66 µM (inactive)

Compound: CCc1ccc(-c2nc(CSCC(=O)N3CCN(c4ncccn4)CC3)c(C)o2)cc1
- EC50 [3]: 53.6 µM (active)
- EC50 [4]: 29.8 µM (active)

Compound: O=C(C1CCC(=O)N(C2CC2)C1)N1CCN(c2ccc(Cl)cc2)CC1 (centres undefined)
- AC50 [6]: 15.8 µM (active)

Compound: CC1CCc2cc(F)ccc2N1C(=O)CSc1n[nH]c2c3ccccc3nc-2n1 (centres undefined)
- EC50 [3]: 19 µM (active)
- EC50 [4]: 22.5 µM (active)

Compound: COc1ccc([N+](=O)[O-])cc1NC(=O)CSc1ccc2ccccc2c1
- IC50 [7]: 2.92 µM (not active)

Compound: Fc1ccc(CSc2ncnc3ccccc23)cc1
- IC50 (Protein skinhead-1): 31.8 µM (active)

Compound: c1csc(C2Nc3cccc4cccc(c34)N2)c1
- IC50 [1]: > 66 µM (inactive)
- IC50 [2]: > 66 µM (inactive)

Compound: O=C(CC1C(=O)NCCN1Cc1ccc(F)cc1)NCCN1CCCc2ccccc21 (centres undefined)
- AC50 [6]: 3.16 µM (active)

Compound: COc1c(Cl)cc(C(=O)Nc2ccccc2-c2ccccc2)cc1Cl
- IC50 [7]: > 50 µM (not active)

Compound: CC(NC(=O)C(=O)N1CCCCC1)C(c1cccs1)N1CCN(c2ccccc2)CC1 (centres undefined)
- AC50 [6]: 1.16 µM (active)

Compound: O=C(COC(=O)CCNS(=O)(=O)c1ccccc1)Nc1ccc(OC(F)F)cc1
- IC50 (Protein skinhead-1): > 100 µM (inactive)

Compound: CCOc1ccc(-c2nnc(-c3ccccc3)o2)cc1
- IC50 (Protein skinhead-1): > 100 µM (inactive)

Compound: CCCCNC(=O)COC(=O)c1c2c(nc3ccccc13)CCC2
- IC50 [8]: 9.63 µM (active)

Compound: CCCOc1ccc(N2C(=O)CC(N(CCc3ccc(OC)cc3)C(=O)c3cccc(F)c3)C2=O)cc1 (centres undefined)
- IC50 (Protein skinhead-1): > 100 µM (inactive)

Compound: Cc1cccc(Nc2ncccc2C(=O)NCc2cccs2)c1C
- IC50 [7]: 14.4 µM (not active)

Compound: Cc1nn(-c2ccccc2)c(N2CCCC2)c1/C=N/Nc1ccc(S(=O)(=O)Nc2ccccc2)cc1[N+](=O)[O-]
- EC50 [3]: 6.74 µM (active)
- EC50 [4]: 9.37 µM (active)

Compound: Cc1cc(C2=NN=C(NC3CC3)SC2)c(C)n1-c1ccccc1
- EC50 [3]: 23.7 µM (active)
- EC50 [4]: 19.5 µM (active)

Compound: CCCCN(CC)CCCN=C(S)Nc1ccc2nc3n(c(=O)c2c1)CCCCC3
- EC50 [9]: > 60 µM (not active)
- IC50 [7]: < 0.4 µM (not active)
- EC50 [10]: 1.29 µM (active)

Compound: CCc1cc2c(=O)n(Cc3ccccc3)c(SC3CCOC3=O)nc2s1 (centres undefined)
- IC50 [7]: 12.6 µM (not active)

Compound: CNC(=O)COC(=O)CNC(=O)c1cc(Cl)cc([N+](=O)[O-])c1
- IC50 [7]: > 50 µM (not active)

Compound: Cc1ccc(C(=O)N(Cc2ccccc2)C(C)(C)C)cc1C
- IC50 [7]: 16.6 µM (not active)

Compound: O=C(NC(=S)Nc1ccc(CN2CCCCC2)cc1)c1ccco1
- IC50 [1]: > 66 µM (inactive)
- IC50 [2]: > 66 µM (inactive)

Compound: CCOC(=O)c1c(NC(=O)C2CCCN(S(=O)(=O)c3ccccc3)C2)sc2c1CCCC2 (centres undefined)
- EC50 [3]: 50.9 µM (active)
- EC50 [4]: 73.3 µM (active)

Compound: CSCc1ccc(C(=O)NC(C)c2ccc(-n3ccnc3)cc2)cc1 (centres undefined)
- AC50 [6]: 1.33 µM (active)

Compound: CN(C)c1ccc(/C=C/c2cc[n+](C)cc2)cc1
- EC50 [9]: > 60 µM (not active)
- AC50 [6]: 0.416 µM (active)
- EC50 [10]: 0.723 µM (active)

Compound: COc1ccc(Cl)cc1NC(=O)CSc1ncnc2c1oc1ccccc12
- EC50 [3]: 4.25 µM (active)
- EC50 [4]: 6.22 µM (active)

Compound: O=C(Nc1ccnc(O)n1)c1sc2ccccc2c1Cl
- IC50 [8]: 16.2 µM (active)

Compound: c1cnc2c(OCc3nc4ccccc4[nH]3)cccc2c1
- IC50 [7]: 7.55 µM (not active)
- EC50 (H4): 5.66 µM (active)
- EC50 [11]: 0.396 µM (active)
- EC50 [12]: 7.06 µM (active)

Compound: Clc1cccc(CSc2ccc(-c3ccco3)nn2)c1
- IC50 (Protein skinhead-1): 99.9 µM (inactive)
- CC50 [13]: > 50 µM (active)

Compound: O=C1CSC(c2cccc(F)c2)N1c1ccccc1 (centres undefined)
- AC50 [6]: 1.22 µM (active)

Compound: Cc1c(C=O)c2ccccc2n1CC(=O)NC(C)c1ccccc1 (centres undefined)
- IC50 [7]: > 50 µM (not active)
